Article PMC5877509, “Cys Site-Directed Mutagenesis of the Human SLC1A5 (ASCT2) Transporter: Structure/Function Relationships and Crucial Role of Cys467 for Redox Sensing and Glutamine Transport” (International Journal of Molecular Sciences, 2018)
Changes are numbered by the printed parent chain. Blank lines part the entries; values can stand above or below the molecule they belong to.

Key:
Assay type in all cases: biochemical
[1] = molecular target: T1, hASCT2 (Homo sapiens, UniProt Q15758); test: [3H]Gln transport inhibition in proteoliposomes at […]
T1 construct: gene SLC1A5; recombinant hASCT2-His6, purified from P. pastoris, in proteoliposomes
T1 sequence (Q15758 1-541): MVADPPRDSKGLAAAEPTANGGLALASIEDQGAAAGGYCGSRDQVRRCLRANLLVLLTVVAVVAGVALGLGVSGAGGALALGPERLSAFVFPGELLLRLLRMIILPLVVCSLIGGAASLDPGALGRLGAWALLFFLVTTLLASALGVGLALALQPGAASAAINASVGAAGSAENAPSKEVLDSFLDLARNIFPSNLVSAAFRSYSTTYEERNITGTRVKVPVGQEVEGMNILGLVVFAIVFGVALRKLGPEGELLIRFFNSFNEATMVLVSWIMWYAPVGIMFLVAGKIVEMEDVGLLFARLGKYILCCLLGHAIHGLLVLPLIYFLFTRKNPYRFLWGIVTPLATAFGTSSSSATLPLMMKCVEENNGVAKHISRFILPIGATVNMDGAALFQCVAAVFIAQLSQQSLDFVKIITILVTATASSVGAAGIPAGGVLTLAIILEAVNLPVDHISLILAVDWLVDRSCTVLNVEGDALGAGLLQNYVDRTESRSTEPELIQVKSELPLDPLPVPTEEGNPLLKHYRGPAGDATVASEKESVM

[2] = molecular target: T2, hASCT2 (Homo sapiens, UniProt Q15758, C467A); test: [3H]Gln transport inhibition in proteoliposomes, dose-response
T2 construct: gene SLC1A5; recombinant hASCT2-His6, purified from P. pastoris, in proteoliposomes
T2 sequence (Q15758 1-541 C467A): T1 sequence (Q15758 1-541) with C467A

[3] = molecular target: T1, hASCT2; test: [3H]Gln transport kinetics (external Km) in proteoliposomes
[4] = molecular target: T2, hASCT2; test: as above
[5] = molecular target: T1, hASCT2; test: [3H]Gln transport inhibition in proteoliposomes, dose-response
[6] = molecular target: T1, hASCT2; test: [3H]Gln transport inhibition in proteoliposomes at […]; details: read-out: % inhibition at 1 mM

Compound: N[C@@H](CS)C(=O)O [Cys]
[3H]Gln transport inhibition in proteoliposomes at 1 mM [1]: While Cys strongly inhibited the transport; in this case, inhibition occurred by a mechanism not involving S-S/SH inter-conversion | IC50 [2]: 16.6 ± 1.62 µM

Km [3]: 35 ± 10 µM | Km [4]: 202 ± 33 µM
Compound: NC(=O)CC[C@H](N)C(=O)O [Gln]

Compound: CS(=O)(=O)SCCS(=O)(=O)O [MTSES, Sodium (2-sulfonatoethyl)methane thiosulfonate]
IC50 [5]: 129 ± 21 µM

Compound: CCN1C(=O)C=CC1=O [NEM]
inhibition at 1000 µM [6]: ~50%
